In patent publication US20250019357A1, “[…] MORPHIC FORMS AND MIXTURES FOR THE TREATMENT OF MENTAL DISORDERS OR MENTAL ENHANCEMENT” (TACTOGEN INC, priority 2021, published 2025):

Assays:
SERT [1] = molecular target: T1, SERT (Rattus norvegicus (Rat), UniProt P31652); assay: In vitro rat synaptosome serotonin release (efflux) assay (Examples 9, 58); type: biochemical; settings: rat synaptosomes
From the text: (§1) FIG. 7B is a graph showing results from an in vitro rat synaptosome serotonin release assay. […] Details and procedural information for this assay are described in Example 9. The x-axis is the log [dose] concentration measured in molar and the y-axis is the [^3H]-labeled 5-HT release measured in percent.
as §1, with “177” for “7B”, “58.” for “9.”, “x-axis” for “x-axis is”

5-HT2B = 5-HT2B (Homo sapiens (Human), UniProt P41595); assay: 5-HT2B antagonist assay (DiscoveRx Calcium NWPLUS, FLIPR); type: cell-based
Protocol: 5-HT2A and 5-HT2B Agonist and Antagonist Assays
The DiscoveRx Calcium NWPLUS Assay was used for detection of changes in intracellular calcium as signaled by an increase of dye fluorescence in cells expressing 5-HT2A receptors. Signal was measured on a fluorescent plate reader equipped with fluidic handling capable of detecting rapid changes in fluorescence upon compound stimulation.
To conduct the assay, cell lines were expanded from freezer stocks according to standard procedures. Cells (10,000cells/well) were seeded in a total volume of 50 μL ([…]) into black-walled, clear-bottom, Poly-D-lysine coated 384-well microplates and incubated at 37-C for the appropriate time prior to testing. DMSO concentration for all readouts was <0.2%. […]
Compound agonist activity was measured on a FLIPR Tetra. Calcium mobilization was monitored for 2 minutes with a 5 second baseline read. FLIPR read-Area under the curve was calculated for the two minute read. Compound activity was analyzed using CBIS data analysis suite (ChemInnovation, CA). Percentage activity was calculated as 100%×(mean RFU of test sample−mean RFU of vehicle control)/(mean MAX RFU control ligand −mean RFU of vehicle control). For antagonist mode assays, percentage inhibition was calculated as 100%×(1−(mean RFU of test sample−mean RFU of vehicle control)/(mean RFU of EC80 control−mean RFU of vehicle control)). […]

SERT [2] = molecular target: T1, SERT; assay: In vitro rat synaptosome serotonin uptake inhibition assay (Examples 9, 58); type: biochemical; settings: rat synaptosomes
From the text: as §1, with “FIG. 7A” for “FIG. 7B”, “serotonin uptake inhibition” for “serotonin release”, “5-HT reuptake” for “5-HT release”
FIG. 176 is a graph showing results from an in vitro rat synaptosome serotonin uptake inhibition assay. […] Details and procedural information for this assay are described in Example 58. The x-axis the log [dose] concentration is measured in Molar units and the y-axis is the [^3H]-labeled 5-HT reuptake measured in percent of maximum produced by the comparison releaser.

5-HT2B, sequence (P41595 whole entry): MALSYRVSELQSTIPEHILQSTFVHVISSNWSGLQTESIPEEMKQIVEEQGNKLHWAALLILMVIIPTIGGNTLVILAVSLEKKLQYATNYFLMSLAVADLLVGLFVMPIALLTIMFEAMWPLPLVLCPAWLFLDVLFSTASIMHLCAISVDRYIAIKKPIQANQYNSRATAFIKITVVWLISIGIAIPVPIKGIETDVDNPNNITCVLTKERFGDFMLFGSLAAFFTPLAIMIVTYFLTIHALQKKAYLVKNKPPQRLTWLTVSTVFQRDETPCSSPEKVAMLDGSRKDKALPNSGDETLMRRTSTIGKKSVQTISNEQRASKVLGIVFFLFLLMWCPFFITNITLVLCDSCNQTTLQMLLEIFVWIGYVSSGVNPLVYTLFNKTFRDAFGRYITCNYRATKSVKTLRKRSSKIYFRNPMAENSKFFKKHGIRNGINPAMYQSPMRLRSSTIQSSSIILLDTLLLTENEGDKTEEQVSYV

SMILES: CCC(Cc1ccc2ccoc2c1)NC (racemic) [RS-6-MBPB]
- [3H]-labeled 5-HT release (SERT [1]): rapidly increases extracellular serotonin by stimulating release
- IC50 (5-HT2B): 3.08 µM
- [3H]-labeled 5-HT reuptake (serotonin uptake inhibition) (SERT [2]): rapidly increases extracellular serotonin by inhibiting reuptake
